Measured values as given in patent US8106055B2, “Substituted amide compounds” (Gruenenthal GmbH, priority 2007, dated 2012).

Columns and labels:
[1] = molecular target: T1, human bradykinin 1 receptor (B1R) (Homo sapiens, UniProt P46663); assay: Functional investigation on the human bradykinin 1 receptor (B1R), Ca2+ FLIPR assay in CHO K1 hB1R cells; type: cell-based; conditions: test substance 10 μM, Ca2+ FLIPR, CHO K1 hB1R cells; for inhibition at 10 µM: CHO-K1, B1R antagonism human, read-out: B1R Ant. h [10 μM] % Inhibition; for B1R Ant. h [10 μM] % Inhibition: B1R antagonism human
T1 construct: expressed in transfected cells; host or cells: CHO K1 cells
T1 sequence (P46663 1-353): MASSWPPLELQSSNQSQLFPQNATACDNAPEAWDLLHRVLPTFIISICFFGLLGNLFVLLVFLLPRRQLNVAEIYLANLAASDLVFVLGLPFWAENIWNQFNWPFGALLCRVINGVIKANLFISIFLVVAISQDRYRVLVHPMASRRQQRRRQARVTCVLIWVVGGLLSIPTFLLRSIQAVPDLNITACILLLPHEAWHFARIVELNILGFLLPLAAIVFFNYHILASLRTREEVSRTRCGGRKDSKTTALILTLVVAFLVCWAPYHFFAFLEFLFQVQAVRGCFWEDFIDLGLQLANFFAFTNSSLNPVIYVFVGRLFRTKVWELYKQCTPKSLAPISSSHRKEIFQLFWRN
Summary of the method: (§1)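 Stably transfected CHO K1 cells loaded with Fluo-4; FLIPR Ca2+ fluorescence peak (ex 488/em 540 nm). Compound added first (agonism vs Lys-Des-Arg9-bradykinin ≥50 nM human, Des-Arg9-bradykinin 10 μM rat), then after 10-20 min agonist at EC80; antagonism as % inhibition, IC50 from concentration series, n=2-3, N≥2.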

[2] = molecular target: T2, bradykinin 1 receptor (B1R) of the rat (Rattus norvegicus, UniProt P97583); assay: Functional investigation on the rat bradykinin 1 receptor (B1R), Ca2+ FLIPR assay in CHO K1 rB1R cells; type: cell-based; conditions: test substance 10 μM, Ca2+ FLIPR, CHO K1 rB1R cells; for inhibition at 10 µM: CHO-K1, B1R antagonism rat, read-out: B1R Ant. r [10 μM] % Inhibition; for B1R Ant. r [10 μM] % Inhibition: B1R antagonism rat
T2 construct: expressed in transfected cells; host or cells: CHO K1 cells
T2 sequence (P97583 1-337): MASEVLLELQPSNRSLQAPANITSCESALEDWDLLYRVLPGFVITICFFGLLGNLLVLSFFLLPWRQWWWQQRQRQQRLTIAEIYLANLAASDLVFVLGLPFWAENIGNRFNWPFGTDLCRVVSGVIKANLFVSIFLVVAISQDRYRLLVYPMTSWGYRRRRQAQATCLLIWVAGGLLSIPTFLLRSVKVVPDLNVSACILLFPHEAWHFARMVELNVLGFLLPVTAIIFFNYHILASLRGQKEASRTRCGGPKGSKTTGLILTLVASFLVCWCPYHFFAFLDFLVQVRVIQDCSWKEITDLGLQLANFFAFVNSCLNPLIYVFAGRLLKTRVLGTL
Summary of the method: as §1

human μ opiate receptor = molecular target: T3, human μ opiate receptor (Homo sapiens, UniProt P35372); assay: Affinity for the human μ opiate receptor ([3H]-naloxone displacement, CHO-K1 receptor membrane preparation, SPA); type: binding; conditions: Table 3, to be read in the same way as Table 1, test concentration 1 μM; for inhibition at 1 µM: 1.5 h, read-out: μ
T3 construct: purchased PerkinElmer Life Sciences, Zaventem, Belgium RB-HOM; host or cells: CHO-K1 cells (membrane preparation)
T3 sequence (P35372 whole entry): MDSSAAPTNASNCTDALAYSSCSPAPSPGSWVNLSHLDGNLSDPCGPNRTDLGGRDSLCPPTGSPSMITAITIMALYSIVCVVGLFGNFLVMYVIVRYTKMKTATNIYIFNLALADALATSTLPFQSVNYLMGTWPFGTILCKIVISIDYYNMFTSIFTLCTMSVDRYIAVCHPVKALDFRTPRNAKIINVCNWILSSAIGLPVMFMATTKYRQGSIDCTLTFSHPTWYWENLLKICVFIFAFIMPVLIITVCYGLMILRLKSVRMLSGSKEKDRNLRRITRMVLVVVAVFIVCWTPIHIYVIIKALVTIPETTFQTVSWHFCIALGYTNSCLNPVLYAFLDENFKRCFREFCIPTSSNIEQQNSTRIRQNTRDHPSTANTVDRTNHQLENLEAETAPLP
Summary of the method: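 Readout is percent displacement of [3H]-naloxone (1 nmol/l) from human μ receptor in CHO-K1 membranes, measured at 1 μmol/l compound. Incubation runs 90 minutes at room temperature with WGA-SPA beads in Tris-HCl/BSA buffer; non-specific binding is defined with 100 μmol/l naloxone.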

Structure (SMILES)	inhibition at 10 µM [1] [%]	inhibition at 10 µM [2] [%]	inhibition at 1 µM (human μ opiate receptor) [%]	B1R Ant. h [10 μM] % Inhibition [1] [%]	B1R Ant. r [10 μM] % Inhibition [2] [%]	μ (human μ opiate receptor) [% inhibition]
CN(CCOCC(=O)NC1CCC(C(CCc2ccccc2)N2CCOCC2)CC1)S(=O)(=O)c1c(Cl)cc(C(F)(F)F)cc1Cl (stereo not drawn) [Example 670, 2-(2-(2,6-dichloro-N-methyl-4-(trifluoromethyl)phenylsulfonamido)ethoxy)-N-(4-(1-morpholino-3-phenylpropyl)cyclohexyl)acetamide]	12	58	7	–	–	–
CN(CCOCC(=O)NC1CCC(C(CCc2ccccc2)N2CCCCC2)CC1)S(=O)(=O)c1c(Cl)cc(C(F)(F)F)cc1Cl (stereo not drawn) [Example 671, 2-(2-(2,6-dichloro-N-methyl-4-(trifluoromethyl)phenylsulfonamido)ethoxy)-N-(4-(3-phenyl-1-(piperidin-1-yl)propyl)cyclohexyl)acetamide]	43	4	9	–	–	–
O=C(COC1CCCN(S(=O)(=O)c2c(Cl)cc(Cl)cc2Cl)C1)NC1CCC(C(CCc2ccccc2)N2CCOCC2)CC1 (stereo not drawn) [Example 672, N-(4-(1-morpholin-3-phenylpropyl)cyclohexyl)-2-(1-(2,4,6-trichlorophenylsulfonyl)piperidin-3-yloxy)acetamide]	–	–	–	18	11	16
O=C(COC1CCCN(S(=O)(=O)c2c(Cl)cc(Cl)cc2Cl)C1)NC1CCC(C(CCc2ccccc2)N2CCCCC2)CC1 (stereo not drawn) [Example 673, N-(4-(3-phenyl-1-(piperidin-1-yl)propyl)cyclohexyl)-2-(1-(2,4,6-trichlorophenylsulfonyl)piperidin-3-yloxy)acetamide]	57	20	71	–	–	–
COc1cc(C)c(S(=O)(=O)N2CCCC(OCC(=O)NC3CCC(C(CCc4ccccc4)N4CCOCC4)CC3)C2)c(C)c1 (stereo not drawn) [Example 674, 2-(1-(4-methoxy-2,6-dimethylphenylsulfonyl)piperidin-3-yloxy)-N-(4-(1-morpholino-3-phenylpropyl)cyclohexyl)acetamide]	61	45	7	–	–	–
COc1cc(C)c(S(=O)(=O)N2CCCC(OCC(=O)NC3CCC(C(CCc4ccccc4)N4CCCCC4)CC3)C2)c(C)c1 (stereo not drawn) [Example 675, 2-(1-(4-methoxy-2,6-dimethylphenylsulfonyl)piperidin-3-yloxy)-N-(4-(3-phenyl-1-(piperidin-1-yl)propyl)cyclohexyl)acetamide]	97	89	37	–	–	–
COc1cc(C)c(S(=O)(=O)N2CCCC2COCC(=O)NC2CCC(C(CCc3ccccc3)N3CCOCC3)CC2)c(C)c1 (stereo not drawn) [Example 676, 2-((1-(4-methoxy-2,6-dimethylphenylsulfonyl)pyrrolidin-2-yl)methoxy)-N-(4-(1-morpholino-3-phenylpropyl)cyclohexyl)acetamide]	93	106	10	–	–	–
COc1cc(C)c(S(=O)(=O)N2CCCC2COCC(=O)NC2CCC(C(CCc3ccccc3)N3CCCCC3)CC2)c(C)c1 (stereo not drawn) [Example 677, 2-((1-(4-methoxy-2,6-dimethylphenylsulfonyl)pyrrolidin-2-yl)methoxy)-N-(4-(3-phenyl-1-(piperidin-1-yl)propyl)cyclohexyl)acetamide]	104	107	60	–	–	–
COc1cc(C)c(S(=O)(=O)N2CCCC(COCC(=O)NC3CCC(C(CCc4ccccc4)N4CCOCC4)CC3)C2)c(C)c1 (stereo not drawn) [Example 678, 2-((1-(4-methoxy-2,6-dimethylphenylsulfonyl)piperidin-3-yl)methoxy)-N-(4-(1-morpholino-3-phenylpropyl)cyclohexyl)acetamide]	45	73	6	–	–	–
O=C(COCC1CCCN(S(=O)(=O)c2c(Cl)cc(Cl)cc2Cl)C1)NC1CCC(C(CCc2ccccc2)N2CCCCC2)CC1 (stereo not drawn) [Example 679, N-(4-(3-phenyl-1-(piperidin-1-yl)propyl)cyclohexyl)-2-((1-(2,4,6-trichlorophenylsulfonyl)piperidin-3-yl)methoxy)acetamide]	39	34	51	–	–	–
CN(CCOCC(=O)NC1CCC(C(c2ccccc2)N2CCOCC2)CC1)S(=O)(=O)c1ccc(Cl)cc1Cl (stereo not drawn) [Example 680, 2-(2-(2,4-dichloro-N-methylphenylsulfonamido)ethoxy)-N-(4-(morpholino(phenyl)methyl)cyclohexyl)acetamide]	21	23	4	–	–	–
COc1cc(C)c(S(=O)(=O)N(C)CCOCC(=O)NC2CCC(C(c3ccccc3)N3CCOCC3)CC2)c(C)c1 (stereo not drawn) [Example 681, 2-(2-(4-methoxy-N,2,6-trimethylphenylsulfonamido)ethoxy)-N-(4-(morpholino(phenyl)methyl)cyclohexyl)acetamide]	98	98	10	–	–	–
COc1cc(C)c(S(=O)(=O)N(C)CCOCC(=O)NC2CCC(C(c3ccccc3)N3CCN(C)CC3)CC2)c(C)c1 (stereo not drawn) [Example 682, 2-(2-(4-methoxy-N,2,6-trimethylphenylsulfonamido)ethoxy)-N-(4-((4-methylpiperazin-1-yl)(phenyl)methyl)cyclohexyl)acetamide]	104	103	36	–	–	–
CN(CCOCC(=O)NC1CCC(C(c2ccccc2)N2CCOCC2)CC1)S(=O)(=O)c1c(Cl)cccc1Cl (stereo not drawn) [Example 683, 2-(2-(2,6-dichloro-N-methylphenylsulfonamido)ethoxy)-N-(4-(morpholino(phenyl)methyl)cyclohexyl)acetamide]	32	48	5	–	–	–
CN1CCN(C(c2ccccc2)C2CCC(NC(=O)COCCN(C)S(=O)(=O)c3c(Cl)cccc3Cl)CC2)CC1 (stereo not drawn) [Example 684, 2-(2-(2,6-dichloro-N-methylphenylsulfonamido)ethoxy)-N-(4-((4-methylpiperazin-1-yl)(phenyl)methyl)cyclohexyl)acetamide]	95	61	29	–	–	–
O=C(COC1CCN(S(=O)(=O)c2c(Cl)cc(Cl)cc2Cl)C1)NC1CCC(C(c2ccccc2)N2CCOCC2)CC1 (stereo not drawn) [Example 685, N-(4-(morpholin(phenyl)methyl)cyclohexyl)-2-(1-(2,4,6-trichlorophenylsulfonyl)pyrrolidin-3-yloxy)acetamide]	–	–	–	13	18	3
CN1CCN(C(c2ccccc2)C2CCC(NC(=O)COC3CCN(S(=O)(=O)c4c(Cl)cc(Cl)cc4Cl)C3)CC2)CC1 (stereo not drawn) [Example 686, N-(4-((4-methylpiperazin-1-yl)(phenyl)methyl)cyclohexyl)-2-(1-(2,4,6-trichlorophenylsulfonyl)pyrrolidin-3-yloxy)acetamide]	80	29	30	–	–	–
COc1cc(C)c(S(=O)(=O)N2CCC(OCC(=O)NC3CCC(C(c4ccccc4)N4CCOCC4)CC3)C2)c(C)c1 (stereo not drawn) [Example 687, 2-(1-(4-methoxy-2,6-dimethylphenylsulfonyl)pyrrolidin-3-yloxy)-N-(4-(morpholino(phenyl)methyl)cyclohexyl)acetamide]	48	88	6	–	–	–
COc1cc(C)c(S(=O)(=O)N2CCC(OCC(=O)NC3CCC(C(c4ccccc4)N4CCN(C)CC4)CC3)C2)c(C)c1 (stereo not drawn) [Example 688, 2-(1-(4-methoxy-2,6-dimethylphenylsulfonyl)pyrrolidin-3-yloxy)-N-(4-((4-methylpiperazin-1-yl)(phenyl)methyl)cyclohexyl)acetamide]	103	94	20	–	–	–
